By melting point is commonly meant the temperature, or range, at which the solid turns liquid.

In patent US20170050957A1, “4-AMINO-6-(HETEROCYCLIC)PICOLINATES AND 6-AMINO-2-(HETEROCYCLIC)PYRIMIDINE-4-CARBOXYLATES AND THEIR USE AS HERBICIDES” (Dow AgroSciences LLC, priority 2013, published 2017) one finds pest or weed control and melting point data, which are given here for two molecules.

Data set [1] concerns Key Grass and Sedge Weeds as well as Grass Crops. In words: Post-emergent Test II herbicidal activity (Table 16). The data set is classed as in vivo. As to conditions: post-emergence, 336 h; for pest or weed control at 35 g/ha: 35 g ai/ha; for pest or weed control at 70 g/ha: 70 g ai/ha; for pest or weed control at 140 g/ha: 140 g ai/ha. How it is done: (§1) Post-emergent Test II: Seeds or nutlets of the desired test plant species were planted in Sun Gro Metro-Mix® 360 planting mixture, which typically has a pH of 6.0 to 6.8 and an organic matter content of about 30 percent, in plastic pots with a surface area of 64 square centimeters. When required to ensure good germination and healthy plants, a fungicide treatment and/or other chemical or physical treatment was applied. The plants were grown for 7-21 d in a greenhouse with an approximate 15 h photoperiod which was maintained at about 23-29° C. during the day and 22-28° C. during the night. Nutrients and water were added on a regular basis and supplemental lighting was provided with overhead metal halide 1000-Watt lamps as necessary. The plants were employed for testing when they reached the first or second true leaf stage.
(§2) A weighed amount, determined by the highest rate to be tested, of each test compound was placed in a 25 mL glass vial and was dissolved in 4 mL of a 97:3 v/v mixture of acetone and DMSO to obtain concentrated stock solutions. […] The concentrated stock solutions obtained were diluted with 20 mL of an aqueous mixture containing acetone, water, isopropyl alcohol, DMSO, Atplus 411F crop oil concentrate, and Triton® X-155 surfactant in a 48.5:39:10:1.5:1.0:0.02 v/v ratio to obtain spray solutions containing the highest application rates. Additional application rates were obtained by serial dilution of 12 mL of the high rate solution into a solution containing 2 mL of 97:3 v/v mixture of acetone and DMSO and 10 mL of an aqueous mixture containing acetone, water, isopropyl alcohol, DMSO, Atplus 411F crop oil concentrate, and Triton X-155 surfactant in a 48.5:39:10:1.5:1.0:0.02 v/v ratio to obtain 1/2×, 1/4×, 1/8× and 1/16× rates of the high rate. Compound requirements are based upon a 12 mL application volume at a rate of 187 liters per hectare (L/ha). Formulated compounds were applied to the plant material with an overhead Mandel track sprayer equipped with 8002E nozzles calibrated to deliver 187 L/ha over an application area of 0.503 square meters at a spray height of 18 inches (43 cm) above the average plant canopy height. Control plants were sprayed in the same manner with the solvent blank.
(§3) The treated plants and control plants were placed in a greenhouse as described above and watered by subirrigation to prevent wash-off of the test compounds. After 14 d, the condition of the test plants as compared with that of the untreated plants was determined visually and scored on a scale of 0 to 100 percent where 0 corresponds to no injury and 100 corresponds to complete kill.

The subject of data set [2] is Key Broadleaf Weed and Crop Species. In words: Post-emergent Test II herbicidal activity (Table 15). In kind it is in vivo. As to conditions: post-emergence, 336 h, 14 d; for pest or weed control at 35 g/ha: 35 g ai/ha; for pest or weed control at 70 g/ha: 70 g ai/ha; for pest or weed control at 140 g/ha: 140 g ai/ha. How it is done: as §1, §2, §3
Where [3] appears, read: Cyperus esculentus, yellow nutsedge (Cyperus esculentus), 14 d, read-out: Visual Growth Reduction (%) 14 Days After Application, CYPES.
Setting [4] is: Echinochloa crus-galli, barnyardgrass (Echinochloa crus-galli), 14 d, read-out: Visual Growth Reduction (%) 14 Days After Application, ECHCG.
Setting [5] is: Oryza sativa, rice (Oryza sativa), 14 d, read-out: Visual Growth Reduction (%) 14 Days After Application, ORYSA.
Where [6] appears, read: Triticum aestivum, wheat, spring (Triticum aestivum), 14 d, read-out: Visual Growth Reduction (%) 14 Days After Application, TRZAS.
Where [7] appears, read: Zea mays, maize, corn (Zea mays), 14 d, read-out: Visual Growth Reduction (%) 14 Days After Application, ZEAMX.
The mark [8] stands for this setting: Abutilon theophrasti, velvetleaf (Abutilon theophrasti), read-out: Visual Growth Reduction (%) 14 Days After Application, ABUTH.
The mark [9] stands for this setting: Amaranthus retroflexus, redroot pigweed (Amaranthus retroflexus), read-out: Visual Growth Reduction (%) 14 Days After Application, AMARE.
Setting [10] is: Brassica napus, oilseed rape, canola (Brassica napus), read-out: Visual Growth Reduction (%) 14 Days After Application, BRSNN.
[11] abbreviates: Chenopodium album, lambsquarters (Chenopodium album), read-out: Visual Growth Reduction (%) 14 Days After Application, CHEAL.
Setting [12] is: Euphorbia heterophylla, wild poinsettia (Euphorbia heterophylla), read-out: Visual Growth Reduction (%) 14 Days After Application, EPHHL.
Where [13] appears, read: Helianthus annuus, sunflower (Helianthus annuus), read-out: Visual Growth Reduction (%) 14 Days After Application, HELAN.

Like-named read-outs stand apart in the source and are kept apart here.

`COC(=O)c1nc(-c2ccc3cc[nH]c3c2)cc(N)c1Cl` [Compound 1.21] registered a melting point of 83 to 85 °C. Further, in data set [1] (setting [3]), the pest or weed control at 35 g/ha lay in the range of 0 to 29%, the pest or weed control at 70 g/ha was in the range of 0 to 29% and the pest or weed control at 140 g/ha fell in the range of 0 to 29%. In data set [1] (setting [4]), the pest or weed control at 35 g/ha fell in the range of 0 to 29% and the pest or weed control at 70 g/ha was in the range of 0 to 29%. For the same molecule, in data set [1] (setting [5]), the pest or weed control at 35 g/ha fell in the range of 0 to 29%, the pest or weed control at 70 g/ha is 0 to 29% and the pest or weed control at 140 g/ha fell in the range of 0 to 29%. In addition, in data set [1] (Setaria faberi, giant foxtail (Setaria faberi), 14 d, read-out: Visual Growth Reduction (%) 14 Days After Application, SETFA), the pest or weed control at 140 g/ha lay within 0 to 29%. In data set [1] (setting [6]), the pest or weed control at 35 g/ha was in the range of 0 to 29%, the pest or weed control at 70 g/ha lay within 0 to 29% and the pest or weed control at 140 g/ha is 0 to 29%. Moreover, in data set [1] (setting [7]), the pest or weed control at 35 g/ha was in the range of 0 to 29%, the pest or weed control at 70 g/ha lay within 0 to 29% and the pest or weed control at 140 g/ha is 0 to 29%. For the same molecule, in data set [2] (setting [8]), the pest or weed control at 35 g/ha lay in the range of 60 to 74% and the pest or weed control at 70 g/ha fell in the range of 60 to 74%. Further, in data set [2] (setting [9]), the pest or weed control at 35 g/ha lay within 0 to 29% and the pest or weed control at 70 g/ha was 0 to 29%. Besides, in data set [2] (setting [10]), the pest or weed control at 35 g/ha fell in the range of 0 to 29% and the pest or weed control at 70 g/ha was 0 to 29%. In data set [2] (setting [11]), the pest or weed control at 35 g/ha lay within 45 to 59% and the pest or weed control at 70 g/ha was 85 to 94%. For the same molecule, in data set [2] (setting [12]), the pest or weed control at 35 g/ha fell in the range of 75 to 84% and the pest or weed control at 70 g/ha was in the range of 85 to 94%. For the same molecule, in data set [2] (setting [13]), the pest or weed control at 35 g/ha is 45 to 59% and the pest or weed control at 70 g/ha is 75 to 84%.

`Cn1ncc2ccc(-c3nc(C(=O)O)c(Cl)c(N)c3F)cc21` [Compound 4.08] returned a melting point of 182 to 184 °C. The pest or weed control at 140 g/ha in data set [1] (Cyperus esculentus, yellow nutsedge (Cyperus esculentus), 14 days after application, read-out: Visual Growth Reduction (%) 14 Days After Application CYPES) lay in the range of 0 to 29%. The pest or weed control at 140 g/ha in data set [1] (Echinochloa crus-galli, barnyardgrass (Echinochloa crus-galli), 14 days after application, read-out: Visual Growth Reduction (%) 14 Days After Application ECHCG) was 0 to 29%. Also, in data set [1] (Oryza sativa, rice (Oryza sativa), 14 days after application, read-out: Visual Growth Reduction (%) 14 Days After Application ORYSA), the pest or weed control at 140 g/ha lay within 0 to 29%. Besides, the pest or weed control at 140 g/ha in data set [1] (Setaria faberi, giant foxtail (Setaria faberi), 14 days after application, read-out: Visual Growth Reduction (%) 14 Days After Application SETFA) lay within 0 to 29%. Also, in data set [1] (Triticum aestivum, wheat, spring (Triticum aestivum), 14 days after application, read-out: Visual Growth Reduction (%) 14 Days After Application TRZAS), the pest or weed control at 140 g/ha fell in the range of 0 to 29%. Also, the pest or weed control at 140 g/ha in data set [1] (Zea mays, maize, corn (Zea mays), 14 days after application, read-out: Visual Growth Reduction (%) 14 Days After Application ZEAMX) fell in the range of 0 to 29%. For the same molecule, in data set [2] (setting [8]), the pest or weed control at 140 g/ha is 0 to 29%. Moreover, the pest or weed control at 140 g/ha in data set [2] (setting [10]) lay in the range of 60 to 74%. Moreover, in data set [2] (setting [11]), the pest or weed control at 140 g/ha fell in the range of 95 to 100%. Further, the pest or weed control at 140 g/ha in data set [2] (setting [12]) is 0 to 29%. Further, the pest or weed control at 140 g/ha in data set [2] (setting [13]) was in the range of 85 to 94%.
